Several values for one entry are separate records, joined by “and”; a condition that tells them apart may be missing. Equal values may be shown once.
Assays:
[1] = test system: formalin-induced pain behaviors in the rat; experiment: Formalin-induced pain test (formalin model), duration of pain behaviors; format: in vivo
Procedure: Exemplary compounds of the invention were tested in the formalin-induced pain test reported by Dubuisson et al., Pain 1977 December; 4(2):161-74 (incorporated herein by reference in its entirety). Briefly, dilute formalin (50 μL of 3% formalin) was injected into the plantar surface of the hind paw of a rat. […] The individual responsible for counting the pain behaviors in a particular study was blinded to the treatment groups.
The initial phase (Phase I: 0-5 min) is thought to have a significant component that is dependent upon direct activation of afferent fibers by formalin and functional TRPA1 (McNamara et al., 2007).
Investigators studied oral administration of compounds of the invention at the doses presented in Table 3 on pain behaviors in the formalin model in the rat. Compounds were formulated as solutions in water with various solvents and excipients including dimethyl sulfoxide (DMSO), polyethylene glycol (15)-hydroxystearate (Solutol®, Sigma-Aldrich), caprylocaproyl macrogol-8 glyceride (Labrasol®, Sigma-Aldrich), polysorbate-80 (Tween®-80, Sigma-Aldrich), and polyoxyl 35 castor oil (Cremophor® EL, BASF Corp.); or suspensions in methylcellulose as indicated in Table 3. Animals were dosed orally with the vehicle, or compounds of the invention one hour prior to intraplantar formalin. […] A decrease over Vehicle indicates a positive result. P values, when indicated, indicate significance compared Vehicle.

[2] = test system: CFA-induced cold hypersensitivity of the hind paw; experiment: CFA-induced pain test, cold hypersensitivity (cold plate paw withdrawal latency); format: in vivo; conditions: cold plate 1° C., solution in 4% DMSO, 5% Tween-80; for Average PWL Post-Treatment / PWL Change: 1-2 hour pre-treatment; for Average PWL Post-CFA: baseline before dosing
Procedure: Embodiments of the invention may be efficacious in the treatment of inflammatory pain. Compounds of the invention were tested by the CFA-induced pain test method. Compounds were formulated as solutions in water with various solvents and excipients including dimethyl sulfoxide (DMSO), polyethylene glycol (15)-hydroxystearate (Solutol®, Sigma-Aldrich), caprylocaproyl macrogol-8 glyceride (Labrasol®, Sigma-Aldrich), polysorbate-80 (Tween®-80, Sigma-Aldrich), and polyoxyl 35 castor oil (Cremophor® EL, BASF Corp.); or suspensions in methylcellulose as indicated in Table 3 for oral delivery. Briefly, the hind paw was sensitized to cold temperature (allodynic) by administering 0.1 mL of Complete Freund's Adjuvant (CFA) to the right hind paw. Three days later, the time taken for the animal to lift its CFA-injected paw was recorded compared to its un-injected normal left hind paw. […] To avoid tissue damage the maximum cut-off time was 5 minutes. Animals that were allodynic (average PWL to the first three pain behaviors <150 seconds for the CFA-injected hind paw: ˜≥50% difference between the normal and CFA-injected paw) were included in the study and subsequently randomized across treatment groups. The following day, the animals were dosed orally under blinded conditions. Following the 1-2 hour pre-treatment time, the post-dose PWL readings were again taken. The efficacy of the drug treatment was assessed by comparing the PWL in the drug treatment animals to those animals that receive the vehicle. P values, when indicated, indicate significance compared Vehicle.

human TRPA1 = human TRPA1 (Homo sapiens (Human), UniProt O75762); experiment: In vitro inhibition of human TRPA1, whole cell patch configuration; format: cell-based; conditions: current activation 10 μM AITC, tested concentrations 320 pM to 3.2 μM, read-out: hTRPA1 IC50
In short: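 Compound antagonism measured from voltage ramps (±100 or ±80 mV, 400 ms, every 4 s from −40 mV), analysed at −80 and 80 mV, or at constant −60 mV. HEPES-buffered NaCl bath, pH 7.4, EGTA or 2 mM Ca2+; temperature set by perfusion, within ±2° C; no junction-potential correction.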

[3] = 10 mg/kg PO one hour prior to formalin, solution in 4% DMSO, 5% Tween-80, 20% Cremophor EL, 71% water
[4] = 0.3 mg/kg PO, 20% Cremophor EL, and 71% water
[5] = 1 mg/kg PO, 20% Cremophor EL, and 71% water
[6] = 3 mg/kg PO, 20% Cremophor EL, and 71% water
[7] = group 0.3 mg/kg PO, 20% Cremophor EL, and 71% water
[8] = group 1 mg/kg PO, 20% Cremophor EL, and 71% water
[9] = group 3 mg/kg PO, 20% Cremophor EL, and 71% water
[10] = 1 mg/kg PO one hour prior to formalin, solution in 4% DMSO, 5% Tween-80, 20% Cremophor EL, 71% water
[11] = 3 mg/kg PO one hour prior to formalin, solution in 4% DMSO, 5% Tween-80, 20% Cremophor EL, 71% water
[12] = 10 mg/kg PO, 20% Cremophor EL, and 71% water
[13] = 30 mg/kg PO one hour prior to formalin, solution in 8% DMSO and 92% Labrasol
[14] = 1 mg/kg PO, 25% Cremophor EL, and 66% water
[15] = 3 mg/kg PO, 25% Cremophor EL, and 66% water
[16] = 10 mg/kg PO, 25% Cremophor EL, and 66% water

Chain of human TRPA1 (O75762 whole entry, the tested form may be a part): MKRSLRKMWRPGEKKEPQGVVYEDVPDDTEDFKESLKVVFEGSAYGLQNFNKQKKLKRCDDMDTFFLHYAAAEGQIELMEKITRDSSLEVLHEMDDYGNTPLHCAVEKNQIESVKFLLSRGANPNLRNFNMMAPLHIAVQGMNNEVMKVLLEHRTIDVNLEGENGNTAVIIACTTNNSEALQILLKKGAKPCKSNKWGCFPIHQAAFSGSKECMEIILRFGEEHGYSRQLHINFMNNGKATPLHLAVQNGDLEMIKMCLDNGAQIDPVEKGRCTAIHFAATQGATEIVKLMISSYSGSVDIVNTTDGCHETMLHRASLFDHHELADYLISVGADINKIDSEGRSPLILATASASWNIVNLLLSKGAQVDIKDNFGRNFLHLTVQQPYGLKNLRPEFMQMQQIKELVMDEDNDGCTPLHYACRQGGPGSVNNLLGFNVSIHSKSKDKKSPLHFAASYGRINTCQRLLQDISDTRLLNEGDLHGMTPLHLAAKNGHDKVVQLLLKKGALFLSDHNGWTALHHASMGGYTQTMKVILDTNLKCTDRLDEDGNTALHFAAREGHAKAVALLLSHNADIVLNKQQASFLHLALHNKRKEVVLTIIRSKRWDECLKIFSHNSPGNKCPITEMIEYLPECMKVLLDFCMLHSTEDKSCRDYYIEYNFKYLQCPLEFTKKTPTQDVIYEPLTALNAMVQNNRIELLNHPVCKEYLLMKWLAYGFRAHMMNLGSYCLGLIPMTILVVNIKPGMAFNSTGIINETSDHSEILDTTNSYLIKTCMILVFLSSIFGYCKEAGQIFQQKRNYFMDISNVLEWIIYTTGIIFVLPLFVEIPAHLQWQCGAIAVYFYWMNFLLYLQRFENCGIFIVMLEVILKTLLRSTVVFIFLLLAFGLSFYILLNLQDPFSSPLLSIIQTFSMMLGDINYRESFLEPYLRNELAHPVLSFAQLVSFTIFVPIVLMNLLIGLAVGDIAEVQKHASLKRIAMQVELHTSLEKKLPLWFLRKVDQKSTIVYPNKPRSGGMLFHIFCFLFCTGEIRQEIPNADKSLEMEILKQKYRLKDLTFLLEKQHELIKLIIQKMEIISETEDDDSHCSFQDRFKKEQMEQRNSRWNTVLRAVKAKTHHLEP

Structure (SMILES)	Duration (0-2 Minutes) Average [1, 3] [s]	Duration (0-5 Minutes) Average [1, 3] [s]	Average PWL Post-Treatment [2, 4]	PWL Change [2, 4] [s]	Average PWL Post-Treatment [2, 5]	PWL Change [2, 5] [s]	Average PWL Post-Treatment [2, 6]	PWL Change [2, 6] [s]	Average PWL Post-CFA [2, 7]	Average PWL Post-CFA [2, 8]	Average PWL Post-CFA [2, 9]	Duration (0-2 Minutes) Average [1, 10] [s]	Duration (0-5 Minutes) Average [1, 10] [s]	Duration (0-2 Minutes) Average [1, 11] [s]	Duration (0-5 Minutes) Average [1, 11] [s]	further results
C[C@@H](C(=O)Nc1csc(-c2cnc(N3CC4CC4C3)nc2)n1)n1cnc2c1c(=O)n(CC#N)c(=O)n2C (stereo partly drawn) [Compound 34, (2S)—N-(2-(2-(3-azabicyclo[3.1.0]hexan-3-yl)pyrimidin-5-yl)thiazol-4-yl)-2-(1-(cyanomethyl)-3-methyl-2,6-dioxo-2,3-dihydro-1H-purin-7(6H)-yl)propanamide]	34.9	154.6	185.6	80.7	205.4	107.4	272.6	169.0	104.9	98.0	103.6					IC50 (human TRPA1): 1 nM
CCC(=O)Cn1c(=O)c2c(ncn2[C@@H](C)C(=O)Nc2csc(-c3cnc(N4CCC[C@H]4C(F)(F)F)nc3)n2)n(C)c1=O [Compound 18, (S)-2-(3-methyl-2,6-dioxo-1-(2-oxobutyl)-2,3-dihydro-1H-purin-7(6H)-yl)-N-(2-(2-((S)-2-(trifluoromethyl)pyrrolidin-1-yl)pyrimidin-5-yl)thiazol-4-yl)propanamide]	35.3	181.6			246.8	149.7	233.5	136.4		97.1	97.0	78.0	183.3	58.0	157.1	Average PWL Post-Treatment [2, 12]: 256.1; PWL Change [2, 12]: 159.1 s; Average PWL Post-CFA ([2]; group 10 mg/kg PO, 20% Cremophor EL, and 71% water): 97.0
COCC(=O)Cn1c(=O)c2c(ncn2[C@@H](C)C(=O)Nc2csc(-c3cnc(N4CC5CC5C4)nc3)n2)n(C)c1=O (stereo partly drawn) [Compound 105, (2S)—N-(2-(2-(3-azabicyclo[3.1.0]hexan-3-yl)pyrimidin-5-yl)thiazol-4-yl)-2-(1-(3-methoxy-2-oxopropyl)-3-methyl-2,6-dioxo-2,3-dihydro-1H-purin-7(6H)-yl)propanamide]	70.1	137.3	137.3	34.9	215.2	112.8	226.3	123.6	102.4	102.3	102.7	97.9	162.6	86.0	154.0	
CCC(=O)Cn1c(=O)c2c(ncn2[C@@H](C)C(=O)Nc2csc(-c3cnc(N4CC5CC5C4)nc3)n2)n(C)c1=O (some centres unmarked) [Compound 14]																Duration (0-2 Minutes) Average [1, 13]: 34.3 s and 39.6 s; Duration (0-5 Minutes) Average [1, 13]: 123.4 s and 160.6 s; Average PWL Post-Treatment [2, 14]: 194.8; PWL Change [2, 14]: 104.2 s; Average PWL Post-Treatment [2, 15]: 180.0; PWL Change [2, 15]: 87.6 s; Average PWL Post-Treatment [2, 16]: 237.4; PWL Change [2, 16]: 146.3 s; Average PWL Post-CFA ([2]; group 1 mg/kg PO, 25% Cremophor EL, and 66% water): 90.3; Average PWL Post-CFA ([2]; group 3 mg/kg PO, 25% Cremophor EL, and 66% water): 92.3; Average PWL Post-CFA ([2]; group 10 mg/kg PO, 25% Cremophor EL, and 66% water): 90.9

Source: US10221177B2 (HYDRA BIOSCIENCES, INC., priority 2014, dated 2019)
